From PMC5971063 (ACS infectious diseases, 2017)
In brackets after ≈: the same amount, converted by molar mass.

Legend:
rabbit erythrocytes = assay: Hemolysis assay; assay type: cell-based; details: 100 µM
S. flexneri 2457 NR-517 [1] = assay: Single-point antibacterial screen; assay type: cell-based, Shigella flexneri
S. flexneri 2457 NR-517 [2] = assay: MIC by double-dilution method; assay type: cell-based, Shigella flexneri
[3] = test system: rabbit reticulocyte lysate (eukaryotic translation); assay: Cell-free in vitro translation assay, eukaryotic system; assay type: biochemical; details: 4.2 µM to 5 nM
E. coli ATCC 25922 [4] = assay: MIC by double-dilution method
P. mirabilis HM-752 [5] = assay: MIC by double-dilution method
MRSA ATCC 33591 [6] = assay: MIC by double-dilution method; details: MRSA 33591
MRSA A960649 NR-45914 [7] = assay: MIC by double-dilution method
C. freundii 4747 CFAA [8] = assay: MIC by double-dilution method
E. cloacae ATCC 13047 [9] = assay: MIC by double-dilution method
[10] = test system: L. monocytogenes ATCC 19115; assay: MIC by double-dilution method
[11] = test system: S. epidermidis ATCC 12384; assay: MIC by double-dilution method
S. marcescens ATCC 13880 [12] = assay: MIC by double-dilution method
E. coli ATCC 25922 [13] = assay: Single-point antibacterial screen
E. faecalis ATCC 29212 = assay: Single-point antibacterial screen
K. pneumoniae NR-151410 = assay: Single-point antibacterial screen
P. mirabilis HM-752 [14] = assay: Single-point antibacterial screen
MRSA ATCC 33591 [15] = assay: Single-point antibacterial screen
MRSA A960649 NR-45914 [16] = assay: Single-point antibacterial screen
A. baumannii ATCC 19606 = assay: Single-point antibacterial screen
C. freundii 4747 CFAA [17] = assay: Single-point antibacterial screen
E. cloacae ATCC 13047 [18] = assay: Single-point antibacterial screen
[19] = test system: L. monocytogenes ATCC 19115; assay: Single-point antibacterial screen
P. aeruginosa ATCC 27853 = assay: Single-point antibacterial screen
[20] = test system: S. epidermidis ATCC 12384; assay: Single-point antibacterial screen
S. marcescens ATCC 13880 [21] = assay: Single-point antibacterial screen
[22] = test system: E. coli A-site (RNA, rRNA) GGCGUCACACCUUCGGGUGAAGUCGCC; assay: fluorescent displacement assay; details: 50 mM Na+; F–NEO displaced (0.1 µM 1:1 complex), 10 mM HEPES, 0.4 mM EDTA, pH 7
[23] = test system: human cytosolic A-site (RNA, rRNA) GGCGUCGCUCCUUCGGGAAAAGUCGCC; assay: fluorescent displacement assay; details: 50 mM Na+; F–NEO displaced (0.1 µM 1:1 complex), 10 mM HEPES, 0.4 mM EDTA, pH 7
[24] = test system: mitochondrial A-site (RNA, rRNA) GGCGUCACCCCUUCGGGACAAGUCGCC; assay: fluorescent displacement assay; details: 50 mM Na+; F–NEO displaced (0.1 µM 1:1 complex), 10 mM HEPES, 0.4 mM EDTA, pH 7
E. coli A-site = details: concentration at which F–NEO emission is 50% of maximum
human cytosolic A-site = details: F–NEO displacement
mitochondrial A-site = details: F–NEO displacement
Hemolysis assay = assay type: cell-based, rabbit; details: rabbit, rabbit erythrocytes (2% w/w)
[25] = test system: E. coli S30 Extract System (prokaryotic translation); assay: Cell-free in vitro translation assay, prokaryotic system; assay type: biochemical; details: 1.25 µM–2.4 nM

Q: With Triton X-100 as the compound, how does the “% hemolysis” value (rabbit erythrocytes) read?
A: 100.0%

Q: Which results are given for `NC[C@@H]1O[C@H](O[C@H]2[C@@H](O)[C@H](O[C@@H]3[C@@H](O)[C@H](N)C[C@H](N)[C@H]3O[C@H]3O[C@H](CN)[C@@H](O)[C@H](O)[C@H]3N)O[C@@H]2CO)[C@H](N)[C@@H](O)[C@@H]1O` [NEO, neomycin]?
A: Inhibition of bacterial growth (S. flexneri 2457 NR-517 [1]; S. flexneri, 6.3 µM): 100%; MIC (S. flexneri 2457 NR-517 [2]): 6.3 µM (≈ 3.87 µg/mL); % hemolysis (rabbit erythrocytes): 7.0 ± 0.4%; Inhibition of eukaryotic translation [3]: inhibition of translation is not observed; MIC (E. coli ATCC 25922 [4]): 1.56 µM (≈ 0.959 µg/mL); MIC (P. mirabilis HM-752 [5]): 6.3 µM (≈ 3.87 µg/mL); MIC (MRSA ATCC 33591 [6]): 400 µM (≈ 246 µg/mL); MIC (MRSA A960649 NR-45914 [7]): 400 µM (≈ 246 µg/mL); MIC (C. freundii 4747 CFAA [8]): 0.78 µM (≈ 0.479 µg/mL); MIC (E. cloacae ATCC 13047 [9]): 3.25 µM (≈ 2 µg/mL); MIC [10]: 1.6 µM (≈ 0.983 µg/mL); MIC [11]: 1.6 µM (≈ 0.983 µg/mL); MIC (S. marcescens ATCC 13880 [12]): 3.2 µM (≈ 1.97 µg/mL); Inhibition of bacterial growth (E. coli ATCC 25922 [13]; E. coli, 6.3 µM): 100%; Inhibition of bacterial growth (E. faecalis ATCC 29212; E. faecalis, 6.3 µM): 39%; Inhibition of bacterial growth (K. pneumoniae NR-151410; K. pneumoniae, 6.3 µM): 0%; Inhibition of bacterial growth (P. mirabilis HM-752 [14]; P. mirabilis, 6.3 µM): 96%; Inhibition of bacterial growth (MRSA ATCC 33591 [15]; MRSA 33591, 6.3 µM): 0%; Inhibition of bacterial growth (MRSA A960649 NR-45914 [16]; MRSA A960649, 6.3 µM): 0%; Inhibition of bacterial growth (A. baumannii ATCC 19606; A. baumannii, 6.3 µM): 91%; Inhibition of bacterial growth (C. freundii 4747 CFAA [17]; C. freundii, 6.3 µM): 97%; Inhibition of bacterial growth (E. cloacae ATCC 13047 [18]; E. cloacae, 6.3 µM): 100%; Inhibition of bacterial growth ([19]; L. monocytogenes, 6.3 µM, 48 h incubation): 100%; Inhibition of bacterial growth (P. aeruginosa ATCC 27853; P. aeruginosa, 6.3 µM): 11%; Inhibition of bacterial growth ([20]; S. epidermidis, 6.3 µM): 95%; Inhibition of bacterial growth (S. marcescens ATCC 13880 [21]; S. marcescens, 6.3 µM): 100%; IC50 [22]: 87.3 ± 5.9 nM; IC50 [23]: 76.5 ± 13.2 nM; IC50 [24]: 87.1 ± 8.3 nM; IC50 (E. coli A-site): 87.3 ± 5.9 nM; IC50 (human cytosolic A-site): 76.5 ± 13.2 nM; IC50 (mitochondrial A-site): 87.1 ± 8.3 nM

Q: With `NCc1ccc2c(c1)C(=O)c1ccccc1C2=O` [AMA] as the compound, how does the inhibition at 6.3 µM (S. flexneri 2457 NR-517 [1]; Shigella flexneri, 2457NR517, read-out: Inhibition of bacterial growth) read?
A: 9%

Q: And the hemolysis at 1 h, 100 µM (Hemolysis assay)?
A: 10 ± 4.6%

Q: And the “Inhibition of prokaryotic translation (in words)” value [25]?
A: did not inhibit in vitro translation

Q: What about the inhibition at 6.3 µM (E. coli ATCC 25922 [13]; Escherichia coli, ATCC25922, read-out: Inhibition of bacterial growth) of the same compound?
A: 2%

Q: And the inhibition at 6.3 µM (E. faecalis ATCC 29212; Enterococcus faecalis, ATCC29212, read-out: Inhibition of bacterial growth)?
A: 27%

Q: What about the inhibition at 6.3 µM (K. pneumoniae NR-151410; Klebsiella pneumoniae, NR151410, read-out: Inhibition of bacterial growth) of the same compound?
A: 0%

Q: What about the inhibition at 6.3 µM (P. mirabilis HM-752 [14]; Proteus mirabilis, HM752, read-out: Inhibition of bacterial growth) of the same compound?
A: 19%

Q: What about the inhibition at 6.3 µM (MRSA ATCC 33591 [15]; Staphylococcus aureus, ATCC33591|MRSA, read-out: Inhibition of bacterial growth) of the same compound?
A: 0%

Q: What about the inhibition at 6.3 µM (MRSA A960649 NR-45914 [16]; Staphylococcus aureus, MRSA, read-out: Inhibition of bacterial growth) of the same compound?
A: 0%

Q: And the inhibition at 6.3 µM (A. baumannii ATCC 19606; Acinetobacter baumannii, ATCC19606, read-out: Inhibition of bacterial growth)?
A: 0%

Q: What about the inhibition at 6.3 µM (C. freundii 4747 CFAA [17]; Citrobacter freundii, 4747CFAA, read-out: Inhibition of bacterial growth) of the same compound?
A: 4%

Q: What about the inhibition at 6.3 µM (E. cloacae ATCC 13047 [18]; Enterobacter cloacae, ATCC13047, read-out: Inhibition of bacterial growth) of the same compound?
A: 0%

Q: What about the inhibition at 6.3 µM ([19]; Listeria monocytogenes, ATCC19115, 48 h, read-out: Inhibition of bacterial growth) of the same compound?
A: 37%

Q: And the inhibition at 6.3 µM (P. aeruginosa ATCC 27853; Pseudomonas aeruginosa, ATCC27853, read-out: Inhibition of bacterial growth)?
A: 5%

Q: And the inhibition at 6.3 µM ([20]; Staphylococcus epidermidis, ATCC12384, read-out: Inhibition of bacterial growth)?
A: 0%

Q: What about the inhibition at 6.3 µM (S. marcescens ATCC 13880 [21]; Serratia marcescens, ATCC13880, read-out: Inhibition of bacterial growth) of the same compound?
A: 0%
